Like-named read-outs stand apart in the source and are kept apart here.
Tests used:
Lgr5 = conditions: Lgr5-LacZ knockin mice; for Lgr5 reporter expression in the liver: 0.8 ml/kg injection
Wnt signalling = Wnt signalling reporter (LacZ) in liver of Axin2-LacZ mice; conditions: after injection
liver organoid cultures = test: Hepatocyte differentiation of liver organoid cultures by added compounds, RT-PCR of hepatocyte markers; conditions: titration, hepatocyte marker expression 7 days
[1] = test system: human biliary-derived cultures; test: Expansion of human biliary-derived liver cultures; assay type: cell-based; conditions: 500 uM added to expansion medium (ERFHNic and ENRWFHNic)

**Q.** Which “time of peak Lgr5 reporter expression after injury” value (Lgr5) does the source give for ClC(Cl)(Cl)Cl [CC14, carbon tetrachloride] here?
**A.** The value was 6.5 days.

**Q.** What about the “Lgr5 reporter expression in the liver” value (Lgr5) of the same molecule?
**A.** The value was “induces Lgr5 expression in the liver at sites of active regeneration”.

**Q.** What about the “Lgr5 reporter expression in the liver” value (Lgr5; listed as CCL4) of the same molecule?
**A.** The value was “upregulation of Lgr5”.

**Q.** And the “Wnt signalling in the liver” value (Wnt signalling; listed as CCL4)?
**A.** Its value is “Wnt signalling is activated”.

**Q.** How did the maximal concentration efficiency (liver organoid cultures) turn out when C[C@H](NC(=O)Cc1cc(F)cc(F)c1)C(=O)N[C@H](C(=O)OC(C)(C)C)c1ccccc1 [DAPT] was run?
**A.** Its maximal concentration efficiency is 10 µM.

**Q.** Cc1cccc(-c2nn(C(=S)Nc3ccccc3)cc2-c2ccnc3ccccc23)n1 [A83-01, 3-(6-Methyl-2-pyridinyl)-N-phenyl-4-(4-quinolinyl)-1H-pyrazole-1-carbothioamide] was tested. Which “expansion of human biliary-derived cultures” value [1] did it give?
**A.** Its value is “able to expand human biliary-derived cultures”.

B1: R-spondin1: Wnt agonist, secreted protein of the R-spondin family; Lgr5 ligand (protein, UniProt Q2MKA7 21-263, looked up)
R-spondin-1: SRGIKGKRQRRISAEGSQACAKGCELCSEVNGCLKCSPKLFILLERNDIRQVGVCLPSCPPGYFDARNPDMNKCIKCKIEHCEACFSHNFCTKCKEGLYLHKGRCYPACPEGSSAANGTMECSSPAQCEMSEWSPWGPCSKKQQLCGFRRGSEERTRRVLHAPVGDHAACSDTKETRRCTVRRVPCPEGQKRRKGGQGRRENANRNLARKESKEAGAGSRRRKGQQQQQQQGTVGPLTSAGPA
**Q.** Which “Wnt signalling in the liver” value (Wnt signalling) does the source give for B1 here?
**A.** The value was “liver cells are responsive to Wnt stimulation”.

**Q.** And the “Wnt signalling in the liver” value (Wnt signalling; listed as R-spondin)?
**A.** Its value is “upregulation of Wnt signalling expression in the liver ducts”.

From patent US11034935B2, “Liver organoid, uses thereof and culture method for obtaining them” (Koninklijke Nederlandse Akademie van Wetenschappen, priority 2010, dated 2021)
